From patent US20260184707A1, “PHARMACEUTICAL COMPOUNDS FOR THE TREATMENT OF COMPLEMENT MEDIATED DISORDERS” (ALEXION PHARMACEUTICALS, INC., priority 2022, published 2026) come the findings set out here.

The target of this experiment is T1, Human complement C1s enzyme (Homo sapiens, UniProt P09871).
T1 construct: purified from human serum, Complement Technology, Inc; purchased Complement Technology, Inc; host or cells: human serum (plasma-derived native protein)
T1 sequence (P09871 438-688 limits assumed): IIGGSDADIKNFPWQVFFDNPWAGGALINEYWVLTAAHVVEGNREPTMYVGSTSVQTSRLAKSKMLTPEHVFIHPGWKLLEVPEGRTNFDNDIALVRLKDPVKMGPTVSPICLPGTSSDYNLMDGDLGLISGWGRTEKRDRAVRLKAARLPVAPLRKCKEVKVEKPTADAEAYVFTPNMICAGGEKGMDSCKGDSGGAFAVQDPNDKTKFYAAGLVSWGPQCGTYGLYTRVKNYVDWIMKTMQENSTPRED
T1 sequence (P09871 16-437 partner limits assumed): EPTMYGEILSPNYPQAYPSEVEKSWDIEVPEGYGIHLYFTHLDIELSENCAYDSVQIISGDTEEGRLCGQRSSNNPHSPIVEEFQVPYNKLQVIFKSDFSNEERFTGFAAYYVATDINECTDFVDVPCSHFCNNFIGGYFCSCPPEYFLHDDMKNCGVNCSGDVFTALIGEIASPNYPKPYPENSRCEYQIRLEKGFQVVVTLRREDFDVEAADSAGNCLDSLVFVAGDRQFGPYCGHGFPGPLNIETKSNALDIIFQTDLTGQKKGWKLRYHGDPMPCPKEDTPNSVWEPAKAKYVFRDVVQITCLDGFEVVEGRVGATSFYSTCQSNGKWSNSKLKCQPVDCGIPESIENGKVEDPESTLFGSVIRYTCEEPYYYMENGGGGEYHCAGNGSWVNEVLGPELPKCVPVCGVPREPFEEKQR
Kind of experiment: Human C1s enzyme assay. The class given is biochemical. As to conditions: human complement C1s enzyme 1.16 nM, substrate Z-L-Lys-SBzl, A405; read-out: IC50 (Stars). In a few lines: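 Serum-purified human C1s (1.16 nM final) preincubated 5 min at room temperature with compound in 50 mM Tris, 1 M NaCl, pH 7.5. Z-L-Lys-SBzl and DTNB added at 100 μM each; A405 recorded every 30 s. IC50 from nonlinear regression of reaction rates versus compound concentration.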

One may read the IC50 as the concentration at which inhibition is half-maximal. For `Cc1nc(-c2ccccc2)n(CC(=O)NCc2cc3cnccc3[nH]2)c(=O)c1N[C@H](C)c1ccc2oc3ccccc3c2c1` [Compound 336, (R)—N-((1H-pyrrolo[3,2-c]pyridin-2-yl)methyl)-2-(5-((1-(dibenzo[b,d]furan-2-yl)ethyl)amino)-4-methyl-6-oxo-2-phenylpyrimidin-1(6H)-yl)acetamide], the IC50 is less than 100 nM. In the case of `O=C(Cn1c(-c2ccccc2)ncc(NC(=O)CCc2ccccc2)c1=O)NCc1cc2cnccc2[nH]1` [Compound 5, N-(1-(2-(((1H-pyrrolo[3,2-c]pyridin-2-yl)methyl)amino)-2-oxoethyl)-6-oxo-2-phenyl-1,6-dihydropyrimidin-5-yl)-3-phenylpropanamide], the IC50 is less than 100 nM. To `O=C(Cn1c(-c2ccc(OC(F)(F)F)cc2)ncc(NCc2ccc3oc4ccccc4c3c2)c1=O)NCc1cc2cnccc2[nH]1` [Compound 136, N-((1H-pyrrolo[3,2-c]pyridin-2-yl)methyl)-2-(5-((dibenzo [b,d]furan-2-ylmethyl)amino)-6-oxo-2-(4-(trifluoromethoxy)-phenyl)pyrimidin-1(6H)-yl)-acetamide] belongs less than 100 nM; to `O=C(Cn1c(-c2ccccc2)ncc(NC(=O)c2coc(-c3ccccc3)n2)c1=O)NCc1cc2cnccc2[nH]1` [Compound 111, N-(1-(2-(((1H-pyrrolo[3,2-c]pyridin-2-yl)methyl)amino)-2-oxoethyl)-6-oxo-2-phenyl-1,6-dihydropyrimidin-5-yl)-2-phenyloxazole-4-carboxamide], less than 100 nM.

In the case of `O=C(Cn1c(-c2ccccc2)ncc(NCCCc2ccc(C3(F)COC3)cc2)c1=O)NCc1cc2cnccc2[nH]1` [Compound 116, N-((1H-pyrrolo[3,2-c]pyridine-2-yl)methyl)-2-(5-((3-(4-(3-fluorooxetan-3-yl)phenyl)propyl)amino)-6-oxo-2-phenylpyrimidin-1(6H)-yl)acetamide], the IC50 is less than 100 nM. Consider `O=C(Cn1c(-c2ccccc2)ncc(NC(=O)c2csc(-c3ccccc3)c2)c1=O)NCc1cc2cnccc2[nH]1` [Compound 218, N-(1-(2-(((1H-pyrrolo[3,2-c]pyridin-2-yl)methyl)amino)-2-oxoethyl)-6-oxo-2-phenyl-1,6-dihydropyrimidin-5-yl)-5-phen-ylthiophene-3-carboxamide], for which the half-inhibitory concentration (IC50) is less than 100 nM.

`C[C@H](Nc1cncn(CC(=O)NCc2cc3cnccc3[nH]2)c1=O)c1ccc2oc3ccccc3c2c1` [Compound 265, (S)—N-((1H-pyrrolo[3,2-c]pyridine-2-yl)methyl)-2-(5-((1-(dibenzo[b,d]furan-2-yl)ethyl)amino)-6-oxopyrimidin-1(6H)-yl)acetamide]: the concentration for half-maximal inhibition (IC50) was less than 100 nM.

On to `Cc1ncc(N[C@H](C)c2ccc3oc4ccccc4c3c2)c(=O)n1CC(=O)NCc1cc2cnccc2[nH]1` [Compound 378, (R)-N-((1H-pyrrolo[3,2-c]pyridin-2-yl)methyl)-2-(5-((1-(dibenzo[b,d]furan-2-yl)ethyl)-amino)-2-methyl-6-oxopyrimi-din-1(6H)-yl)acetamide], for which the IC50 is greater than 1000 nM. To `O=C(Cn1c(-c2ccccc2)ncc(N2CCn3c(nnc3C(F)(F)F)C2)c1=O)NCc1cc2cnccc2[nH]1` [Compound 44, N-((1H-pyrrolo[3,2-c]pyridin-2-yl)methyl)-2-(6-oxo-2-phen-yl-5-(3-(trifluoromethyl)-5,6-dihydro-[1,2,4]triazolo[4,3-a]pyrazin-7(8H)-yl)pyrimidin-1(6H)-yl)acetamide] belongs 100 to 1000 nM; to `Cc1ccc(-c2ncc(NCCCc3ccccc3)c(=O)n2CC(=O)NCc2cc3cnccc3[nH]2)c(F)c1` [Compound 437, N-((1H-pyrrolo[3,2-c]pyridin-2-yl)methyl)-2-(2-(2-fluoro-4-methylphenyl)-6-oxo-5-((3-phenylpropyl)amino)pyrimi-din-1(6H)-yl)acetamide], less than 100 nM.

`C[C@@H](Nc1cnc(N2CCCCCC2)n(CC(=O)NCc2cc3cnccc3[nH]2)c1=O)c1ccc2oc3ccccc3c2c1` [Compound 388, (R)-N-((1H-pyrrolo[3,2-c]pyridin-2-yl)methyl)-2-(2-(azepan-1-yl)-5-((1-(dibenzo [b,d]furan-2-yl)ethyl)amino)-6-oxopyrimidin-1(6H)-yl)-acetamide]: the IC50 fell in the range of 100 to 1000 nM. To `C[C@@H](Nc1cnc(-c2ccccc2)n(CC(=O)NCc2cc3cnccc3[nH]2)c1=O)c1ccc2c(c1)-c1ccccc1C2(F)F` [Compound 359, (R)-N-((1H-pyrrolo[3,2-c]pyridin-2-yl)methyl)-2-(5-((1-(9,9-difluoro-9H-fluoren-3-yl)-ethyl)amino)-6-oxo-2-phenyl-pyrimidin-1(6H)-yl)acetamide] belongs less than 100 nM.

Take `C[C@@H](NC(=O)Cn1c(-c2ccccc2)ncc(NCCCc2ccccc2)c1=O)c1cc2cnccc2[nH]1` [Compound 10, (R)-N-(1-(1H-pyrrolo[3,2-c]pyridin-2-yl)ethyl)-2-(6-oxo-2-phenyl-5-((3-phenylpropyl)-amino)pyrimidin-1(6H)-yl)-acetamide]: the half-inhibitory concentration (IC50) is less than 100 nM.

With `O=C(Cn1c(-c2ccccc2)ncc(NC(=O)c2ccc(-c3ncco3)cc2)c1=O)NCc1cc2cnccc2[nH]1` [Compound 108, N-(1-(2-(((1H-pyrrolo[3,2-c]pyridin-2-yl)methyl)amino)-2-oxoethyl)-6-oxo-2-phenyl-1,6-dihydropyrimidin-5-yl)-4-(oxazol-2-yl)benzamide], the IC50 is less than 100 nM. Regarding `C[C@@H](Nc1cnc(-c2cnn(C)c2)n(CC(=O)NCc2cc3cnccc3[nH]2)c1=O)c1ccc2oc3ccccc3c2c1` [Compound 328, (R)-N-((1H-pyrrolo[3,2-c]pyridin-2-yl)methyl)-2-(5-((1-(dibenzo[b,d]furan-2-yl)ethyl)-amino)-2-(1-methyl-1H-pyr-azol-4-yl)-6-oxopyrimidin-1(6H)-yl)acetamide], the half-maximal inhibitory concentration (IC50) is less than 100 nM.

Take `O=C(Cn1c(-c2ccccc2)ncc(NCCCCOc2ccccc2)c1=O)NCc1cc2cnccc2[nH]1` [Compound 11, N-((1H-pyrrolo[3,2-c]pyridin-2-yl)methyl)-2-(6-oxo-5-((4-phenoxybutyl)amino)-2-phenylpyrimidin-1(6H)-yl)acetamide]: the IC50 is less than 100 nM. The result for `O=C(Cn1c(-c2ccccc2)ncc(NCc2cc(-c3ccccc3F)on2)c1=O)NCc1cc2cnccc2[nH]1` [Compound 456, N-((1H-pyrrolo[3,2-c]pyridin-2-yl)methyl)-2-(5-(((5-(2-fluorophenyl)isoxazol-3-yl)-methyl)amino)-6-oxo-2-phen-ylpyrimidin-1(6H)-yl)acet-amide] reads less than 100 nM. In the case of `O=C(Cn1c(-c2ccccc2)ncc(NCc2ccc3oc4ccccc4c3c2)c1=O)NCc1cc2cnccc2s1` [Compound 141, 2-(5-((Dibenzo[b,d]furan-2-ylmethyl)amino)-6-oxo-2-phenylpyrimidin-1(6H)-yl)-N-(thieno[3,2-c]pyridin-2-ylmethyl)acetamide], the half-inhibitory concentration (IC50) was less than 100 nM.

In the case of `COc1cccc(-c2nc(C(=O)Nc3cnc(-c4ccccc4)n(CC(=O)NCc4cc5cnccc5[nH]4)c3=O)co2)c1` [Compound 211, N-(1-(2-(((1H-pyrrolo[3,2-c]pyridine-2-yl)methyl)amino)-2-oxoethyl)-6-oxo-2-phenyl-1,6-dihydropyrimidin-5-yl)-2-(3-methoxyphenyl)oxazole-4-carboxamide], the half-inhibitory concentration (IC50) was less than 100 nM. The result for `O=C(Cn1c(N2CCOCC2)ncc(NC(=O)c2ccc(Oc3ccccc3)cc2)c1=O)NCc1cc2cnccc2[nH]1` [Compound 410, N-(1-(2-(((1H-pyrrolo[3,2-c]pyridin-2-yl)methyl)amino)-2-oxoethyl)-2-morpholino-6-oxo-1,6-dihydropyrimidin-5-yl)-4-phenoxybenzamide] reads less than 100 nM; that for `O=C(Cn1c(-c2ccccc2)ncc(NC(=O)c2ccc(-c3ccccc3)s2)c1=O)Nc1nccs1` [Compound 220, N-(6-oxo-1-(2-oxo-2-(thiazol-2-ylamino)ethyl)-2-phenyl-1,6-dihydropyrimidin-5-yl)-5-phen-ylthiophene-2-carboxamide], less than 100 nM. As for `O=C(Cn1c(-c2ccc(OC3CS(=O)(=O)C3)cc2)ncc(NCCCc2ccccc2)c1=O)NCc1cc2cnccc2[nH]1` [Compound 124, N-((1H-pyrrolo[3,2-c]pyridine-2-yl)methyl)-2-(2-(4-((1,1-dioxidothietan-3-yl)oxy)phenyl)-6-oxo-5-((3-phenylpropyl)amino)pyrimidin-1(6H)-yl)acetamide], the IC50 was less than 100 nM.

For the molecule `O=C(Cn1c(N2CC(F)C2)ncc(NCc2ccc3oc4ccccc4c3c2)c1=O)NCc1cc2cnccc2[nH]1` [Compound 270, 2-[5-(dibenzofuran-2-ylmethylamino)-2-(3-fluoroazetidin-1-yl)-6-oxo-pyrimidin-1-yl]-N-(1H-pyrrolo[3,2-c]pyridine-2-ylmethyl)acetamide], the concentration for half-maximal inhibition (IC50) is less than 100 nM.
